Measurements from patent publication US20130217122A1, “Expansion of Interferon-Gamma-Producing T-Cells Using Glypican-3 Peptide Library” (The Trustees of the University of Pennsylvania, priority 2012, published 2013).

Key:
[1] = system: CD8+ T-cells; type: cell-based, human
[2] = biological target: HLA-A2.1 (Homo sapiens, UniProt P04439, D140Y/D185E/D98H/E176V/E277Q/G131W/G231S/I119V/I121R/I166T/I218V/L300P/L318F/N151K/N90K/P208A/P217A/Q86G/Q94H/R138H/R169H/T345S); assay: T2 binding assay; conditions: 9-10 mer epitopes
[3] = system: CD8+ T-cells; type: cell-based, human; remark: listed apart in the source
[4] = biological target: T1, human HLA-A2.1 on T2 cells (human); assay: T2 binding assay (HLA-A2 on T2 cells, flow cytometry)
T1 construct: whole, on cells; Empty or peptide-receptive HLA-A2.1 on TAP-deficient T2 cells; also called HLA-A*0201; class I MHC molecules

Molecule	Median pentamer+/CD8+ cells (range) [1]	No. with pentamer + cluster [1]	No. with pentamer + cluster (%) [1]	binding affinity of optimum HLA-A2-binding epitopes [2]	PD-1 expression in pentamer-positive versus pentamer-negative CD8+ T-cells [1]	IFNγ secretion by expanded cells restimulated with cognate antigens [3]	expansion of pentamer-specific CD8+ T-cells [3]	binding result [4]
LMLGEFLKL [SurlM2, reference compound]	0.20 (0.20-0.20) %	1 (11)	1 (11) %					
CINGVCWTV [NS3 1073, reference compound]	0.07 (0.03-0.10) %	2 (29)	2 (29) %					
ELFDSLFPV [GPC3 169-178, peptide and HLA-A2.1 pentamer loaded with it]	1.00 (0.20-1.60) %	5 (63)	5 (63) %	strong binding affinity				
SLTPQAFEFV [GPC3 136-145, peptide and HLA-A2.1 pentamer loaded with it]	0.70 (0.05-1.30) %	4 (50)	4 (50) %	strong binding affinity				
KLLTSMAISV [GPC3 563-572, peptide and HLA-A2.1 pentamer loaded with it]	0.45 (0.05-1.60) %	4 (44)	4 (44) %	strong binding affinity	strong trend			
GILGFTFVL [Flu matrix, reference compound]	0.40 (0.30-1.30) %	5 (56)	5 (56) %					
RLQPGLKWV [GPC3 44-52, peptide and HLA-A2.1 pentamer loaded with it]	0.20 (0.10-0.30) %	3 (33)	3 (33) %	strong binding affinity	significantly greater	minimal-to-absent	readily detectable expansion	
FEFVGEFFTD [GPC3 142-151, peptide and HLA-A2.1 pentamer loaded with it]	0.47 (0.03-0.90) %	2 (22)	2 (22) %	strong binding affinity				
FEFVGEFFTD (Synthetic 10 mer of human glypican-3 (NP-004475); also called GPC3 142-151; GPC3142-151) [Glypican-3 142-151 (FEFVGEFFTD)]								binds
KLLTSMAISV (Synthetic 10 mer of human glypican-3 (NP-004475); also called GPC3 563-572; GPC3563-572) [Glypican-3 563-572 (KLLTSMAISV)]								binds
ELFDSLFPV (Synthetic 9 mer of human glypican-3 (NP-004475); also called GPC3 169-177; GPC3169-177) [Glypican-3 169-177 (ELFDSLFPV)]								binds
RLQPGLKWV (Synthetic 9 mer of human glypican-3 (NP-004475); also called GPC3 44-52; GPC344-52) [Glypican-3 44-52 (RLQPGLKWV)]								binds
